“Also recorded” adds a separate entry of the source.
Key:
Akt = format: cell-based, human
cAMP = format: cell-based, human
HeLa cells [1] = format: cell-based, human
zebrafish embryos = conditions: in vivo
HeLa cells [2] = test: Removal of YopE1-138 appendage by T3SS-delivered TEV protease, Western blot of digitonin lysed HeLa cells; format: cell-based, human; conditions: coinfection, 2 h
Text: HeLa cells in 6-well plates were infected at an MOI of 100 as described above. In case of coinfection with the TEV protease translocating Y. enterocolitica strain, the OD600 of the strains was set and the two bacterial suspensions were mixed in a tube at a ratio of 1:1 (if not otherwise indicated) before addition to the cells. At the end of the infection, the cells were washed twice with ice-cold PBS and collected by scraping in a small volume of ice-cold PBS. After centrifugation (16 000 rcf, 5 min, 4° C.) the pellet was dissolved in 0.002% digitonin supplemented with a protease inhibitor cocktail (Roche complete, Roche). The dissolved pellets were incubated for 5 minutes on ice and then centrifuged (16 000 rcf, 25 min, 4° C.). Supernatants were collected and analyzed for total protein content by […] (Pierce) before SDS PAGE and Western blotting using an anti-Myc (Santa Cruz, 9E1 1) or anti-Ink4C (Cell Signaling) antibody.

D2A1 cells = format: cell-based
4T1 cells = format: cell-based
HeLa cells [3] = format: cell-based, human; remark: listed apart in the source
B16F10 cells = format: cell-based
[4] = system: actin network in HeLa cells; format: cell-based, human
p38 = format: cell-based, human
HeLa cells [5] = test: Apoptosis induction in HeLa cells by S. enterica aroA delivered murine tBid fusions (cleaved Caspase 3 p17 western blot); format: cell-based, human; conditions: 4 h, MOI of 100
[6] = S. enterica aroA grown under SPI-1 T3SS inducing conditions
[7] = S. enterica aroA grown under SPI-2 T3SS inducing conditions

## YopEi_i38-SopB: YopE1-138 fusion with Salmonella type III effector SopB
Akt
  phosphorylation of Akt at T308 and S473: induced a strong phosphorylation of Akt at T308 and 5473

## BepA: YopE1-138 fusion with full length type IV effector BepA from B. henselae
cAMP
  cAMP production: triggered cAMP production in expected amounts

## YopEi_i38-z-BIM: YopE1-138 fusion with zebrafish apoptosis inducer BIM
HeLa cells [1]
  apoptosis / cell death induction: showed clear signs of cell death
Zebrafish embryos
  automated image analysis of Caspase 3 p17 staining near bacteria: induce apoptosis in nearby cells by far more than control bacteria do
  cleaved CASP3 (apoptosis) in regions surrounding the bacteria: strong increase in presence of cleaved CASP3; also recorded: induces apoptosis in zebrafish embryos

## TEV protease: TEV protease (S219V variant) fused to YopE1-138, delivered via T3SS
HeLa cells [2]
  function of TEV protease delivered via T3SS: functional

## murine BAX: YopE1-138 fusion with BH3 domain of murine BAX, codon optimized for Y. enterocolitica
D2A1 cells
  cell death / apoptosis induction: induce massive cell death; also recorded: induces massive apoptosis
4T1 cells
  cell death / apoptosis induction: induce massive cell death; also recorded: induces massive apoptosis
HeLa cells [3]
  cell death / apoptosis induction: induce massive cell death; also recorded: induces massive apoptosis
B16F10 cells
  cell death / apoptosis induction: induce massive cell death; also recorded: induces massive apoptosis

## BepAE30 5-end: YopE1-138 fusion with BepA E305-end containing the C-terminal Bid domain
cAMP
  cAMP production: triggered cAMP production in expected amounts

## YopEi_i38-SopE: YopE1-138 fusion with SopE from Salmonella enterica
Akt
  phosphorylation of Akt at T308 and S473: had no effect on Akt
[4]
  changes in the actin network / F-actin rearrangements: induced dramatic changes in the actin network
  time of first changes in the actin cytoskeleton: 2 min p.i.

## YopEi_i38-SopE-Myc: YopE1-138 fusion with SopE and MycHis tag
[4]
  changes in the actin network / F-actin rearrangements: triggered massive F-actin rearrangements

## BH3 domain of murine BID: YopE1-138 fusion with BH3 domain of murine tBID, codon optimized for Y. enterocolitica
D2A1 cells
  cell death / apoptosis induction: induce massive cell death; also recorded: induces massive apoptosis
4T1 cells
  cell death / apoptosis induction: induce massive cell death; also recorded: induces massive apoptosis
HeLa cells [3]
  cell death / apoptosis induction: induce massive cell death; also recorded: induces massive apoptosis
B16F10 cells
  cell death / apoptosis induction: induce massive cell death; also recorded: induces massive apoptosis

## murine tBID: YopE1-138 fusion with murine tBID codon optimized for Y. enterocolitica
D2A1 cells
  cell death / apoptosis induction: triggered cell death; also recorded: induces massive apoptosis
4T1 cells
  cell death / apoptosis induction: triggered cell death; also recorded: induces massive apoptosis
HeLa cells [3]
  cell death / apoptosis induction: triggered cell death; also recorded: induces massive apoptosis
B16F10 cells
  cell death / apoptosis induction: triggered cell death; also recorded: induces massive apoptosis

## YopEi_i38-OspF: YopE1-138 fusion with S. flexneri type III effector OspF
p38
  TNFa-induced p38 phosphorylation: TNFa-induced phosphorylation was abolished

## YopEi_i38-SptP: YopE1-138 fusion with SptP, GTPase activating protein for Cdc42
[4]
  effect of co-infection on YopE1-138-SopE-Myc triggered F-actin rearrangements: abolished this effect in a dose dependent manner

## BepG: YopE1-138 fusion with the Bid domain of the B. henselae effector BepG
cAMP
  cAMP production: failed to induce cAMP

## Murine tBID fused to full length SteA: murine tBID fused to full length SteA, delivered by S. enterica
HeLa cells [5]; [6]
  apoptosis induction (CASP3 p17 production): lead to apoptosis induction in HeLa cells
HeLa cells [5]; [7]
  apoptosis induction (CASP3 p17 production): lead to apoptosis induction in HeLa cells

## YopEi_i38-BID: YopE1-138 fusion with human BH3 interacting-domain death agonist (BID)
HeLa cells [1]
  apoptosis / cell death induction: failed to induce apoptosis

B1: SteAi_2o fused murine tBID: murine tBID fused to the 20 N-terminal amino acids of SteA, delivered by S. enterica (protein)
chain: MPYTSVSTYARALSGNKLPHGTGSQASRSFNQGRIEPDSESQEEIIHNIARHLAQIGDEMDHNIQPTLVRQLAAQFMNGSLSEEDKRNCLAKALDEVKTAFPRDMENDKAMLIMTMLLAKKVASHAPSLLRDVFHTTVNFINQNLFSYVRNLVRNEMD
modifications: SteA1-20 - S. enterica codon optimized murine t-BID
notes: murine tBID fused to the 20 N-terminal amino acids of SteA, delivered by S. enterica
HeLa cells [5]; [6]
  apoptosis induction (CASP3 p17 production): failed to induce apoptosis
HeLa cells [5]; [7]
  apoptosis induction (CASP3 p17 production): failed to induce apoptosis

— patent US12091670B2, “Bacteria-based protein delivery” (Universitaet Basel, priority 2014, dated 2024)
